Some test systems named below: ACHN renal; CCRF-CEM leukemia; HCC-2998 colon; HCT-15 colon; IGROV1 ovarian; NCI-H23 lung; OVCAR-3 ovarian; SF-295 CNS; SK-MEL-2 melanoma; SN12C renal; SR leukemia; U251 CNS; UACC-257 melanoma; UACC-62 melanoma; UO-31 renal.
Experiment in all cases: growth of human tumour cells (NCI), 48 h

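Tested at 5 concentrations; 48 h exposure; 96-well plates; endpoints linearly interpolated, else capped at highest concentration. TGI: total growth inhibition.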 A value given as a limit tells only on which side of the number the result lay.

On to `C=CCC1C(=O)CC2(C)C(CC=C)C(=O)CC12C` (stereo not given), for which the TGI in the assay with ACHN renal, in the assay on CCRF-CEM leukemia, with HCC-2998 colon, in the assay with HCT-15 colon, in the assay on IGROV1 ovarian and in the assay on NCI-H23 lung was above 100 µM in each case. In addition, the TGI in the assay with OVCAR-3 ovarian, in the assay on SF-295 CNS, in the assay on SK-MEL-2 melanoma, with SN12C renal, in the assay with SR leukemia and in the assay on U251 CNS was above 100 µM throughout. Further, the TGI in the assay on UACC-257 melanoma, in the assay with UACC-62 melanoma and in the assay on UO-31 renal was above 100 µM each time.

Consider `COC(=O)/C(=N\N)C(C(=O)C(=O)Nc1nc(=S)[nH][nH]1)c1nc2ccc([N+](=O)[O-])cc2[nH]c1=O` (stereo not given), for which the TGI in the assay with ACHN renal, in the assay on CCRF-CEM leukemia, in the assay on HCC-2998 colon, with HCT-15 colon, in the assay with IGROV1 ovarian and with NCI-H23 lung was above 100 µM in each case. Moreover, the TGI in the assay with OVCAR-3 ovarian, with SF-295 CNS, with SK-MEL-2 melanoma, in the assay on SN12C renal, with SR leukemia and in the assay with U251 CNS was above 100 µM in each case. Besides, the TGI in the assay with UACC-257 melanoma, with UACC-62 melanoma and with UO-31 renal was above 100 µM in each case.

`O=C1c2ccccc2C(=O)c2sc(Nc3ccc([N+](=O)[O-])cc3)nc21`: the TGI in the assay on ACHN renal amounted to 7.55 µM; in the assay on CCRF-CEM leukemia, 5.37 µM; in the assay with HCC-2998 colon, 30.1 µM; in the assay with HCT-15 colon it was 18.9 µM; in the assay with IGROV1 ovarian it was 26.2 µM; in the assay on NCI-H23 lung, 9.77 µM. The TGI in the assay on OVCAR-3 ovarian was 6.82 µM; in the assay with SF-295 CNS, 24.7 µM; with SK-MEL-2 melanoma, 34.1 µM; with SN12C renal it was 8.15 µM; in the assay with SR leukemia, 7.97 µM; with U251 CNS, 8.71 µM. Further, the figures for the TGI in the assay with UACC-257 melanoma, with UACC-62 melanoma and in the assay with UO-31 renal were 11.7 µM, 8.31 µM and 8.94 µM, respectively.

In the case of `N#CCC(=O)Nc1ccccc1O`, the TGI in the assay with ACHN renal, in the assay on CCRF-CEM leukemia, in the assay with HCC-2998 colon, in the assay with HCT-15 colon, in the assay on IGROV1 ovarian and with NCI-H23 lung was above 100 µM each time. The TGI in the assay with OVCAR-3 ovarian, with SF-295 CNS, in the assay on SK-MEL-2 melanoma, with SN12C renal, with SR leukemia and with U251 CNS was above 100 µM each time. Further, the TGI with UACC-257 melanoma, with UACC-62 melanoma and with UO-31 renal was above 100 µM throughout.

On to `Cc1cnc2[nH]c(-c3ccc(Cl)cc3)cc(=O)c2c1`, for which the TGI with ACHN renal is above 100 µM; in the assay with CCRF-CEM leukemia, above 100 µM; in the assay on HCC-2998 colon, 70.1 µM; in the assay on HCT-15 colon it was above 40.8 µM; in the assay on IGROV1 ovarian it was above 100 µM; in the assay on NCI-H23 lung it was above 100 µM. For the same compound, the TGI in the assay on OVCAR-3 ovarian was above 24.4 µM; in the assay on SF-295 CNS, 23 µM; in the assay on SK-MEL-2 melanoma, above 100 µM; with SN12C renal, above 100 µM; in the assay with SR leukemia, above 100 µM; in the assay on U251 CNS, above 32.4 µM. Further, the TGI in the assay with UACC-257 melanoma is above 100 µM; in the assay on UACC-62 melanoma it was above 100 µM; in the assay on UO-31 renal, above 60.5 µM.

Take `COc1nc2c(c(=O)[nH]1)N=C(c1ccc(Cl)cc1)CC(c1ccccc1)N2` (stereo not given): the TGI with ACHN renal is 52.3 µM; in the assay with CCRF-CEM leukemia, 44.9 µM; with HCC-2998 colon, above 100 µM; in the assay on HCT-15 colon it was 64.6 µM; with IGROV1 ovarian it was above 100 µM; in the assay with NCI-H23 lung it was above 100 µM. Besides, the TGI was above 100 µM with OVCAR-3 ovarian; 70.7 µM in the assay on SF-295 CNS; 60.1 µM in the assay on SK-MEL-2 melanoma; 47.1 µM in the assay with SN12C renal; above 100 µM in the assay on SR leukemia; above 100 µM in the assay on U251 CNS. The TGI in the assay with UACC-257 melanoma is above 100 µM; with UACC-62 melanoma, 46.6 µM; in the assay on UO-31 renal it was above 100 µM.

On to `COc1cc2c(cc1O)C(=O)O[C@@H]1CC=C3CCN(C)[C@H]3[C@H]21`, for which the TGI with ACHN renal, in the assay with CCRF-CEM leukemia, in the assay with HCC-2998 colon, with HCT-15 colon, in the assay with IGROV1 ovarian and with NCI-H23 lung was above 25 µM throughout. The TGI in the assay with OVCAR-3 ovarian, in the assay with SF-295 CNS, in the assay on SK-MEL-2 melanoma, in the assay on SN12C renal, in the assay with SR leukemia and in the assay on U251 CNS was above 25 µM each time. For the same compound, the TGI with UACC-257 melanoma, in the assay with UACC-62 melanoma and in the assay with UO-31 renal was above 25 µM each time.

As to `c1cc2c3ccsc3c3sccc3c2s1`, the TGI in the assay on ACHN renal, in the assay on CCRF-CEM leukemia, in the assay on HCC-2998 colon, with HCT-15 colon, with IGROV1 ovarian and in the assay with NCI-H23 lung was above 100 µM throughout. The TGI in the assay on OVCAR-3 ovarian, with SF-295 CNS, in the assay with SK-MEL-2 melanoma, in the assay on SN12C renal, in the assay with SR leukemia and with U251 CNS was above 100 µM in each case. The TGI in the assay on UACC-257 melanoma, in the assay on UACC-62 melanoma and with UO-31 renal was above 100 µM throughout.

`COc1ccc(/C=C/c2nc(=S)[nH][nH]2)cc1OC`: the TGI with ACHN renal, with CCRF-CEM leukemia, with HCC-2998 colon, with HCT-15 colon, in the assay with IGROV1 ovarian and in the assay on NCI-H23 lung was above 100 µM in each case. In addition, the TGI with OVCAR-3 ovarian, in the assay on SF-295 CNS, in the assay with SK-MEL-2 melanoma, in the assay on SN12C renal, in the assay on SR leukemia and with U251 CNS was above 100 µM throughout. Moreover, the TGI in the assay on UACC-257 melanoma, in the assay with UACC-62 melanoma and in the assay on UO-31 renal was above 100 µM in each case.
